Data on one substance can be found in US20090105149A1, “Compounds comprising lpa” (ENKAM PHARMACEUTICALS A/S, priority 2003, published 2009).

Assay [1] relates to hippocampal neurons. Nature of the assay: Survival of hippocampal neurons exposed to Aβ25-35. The assay is classed as cell-based, rat. The conditions noted are these: for Neuronal Survival (% of Control): β-amyloid, Hippocampal (E19). On the procedure: For the experiments dissociated hippocampal neurons were isolated from Wistar rat embryos at embryonic day 19 or newborn rats as described by Rønn et al. (1999) Nat. Biotechnol. 17:1000-5.
Briefly, hippocampus was isolated from the brain in ice cold modified Krebs Ringer solution, cleared of blood vessels, roughly homogenised by chopping and then trypsinised. The dissociated cells were washed in the presence of DNAse 1 and soybean trypsin inhibitor.
For the assay neurons were plated at a density of 40,000 cells/cm^2 on 8-well permanox slides coated with 10 μg/ml poly-L-lysine in Neurobasal medium. 15 minutes after plating, Aβ25-35 was added to a final concentration of 20 μM. The Aβ25-35 had prior to plating been dissolved in sterile deionized water to a concentration of 3 mM and incubated at 37° C. for four days according to Pigino et al. (2001) J. Neurosci. 21:834-42. This treatment induces fibrillation of the Aβ-peptide fragment, thereby increasing its neurotoxic activity. The neurons were incubated with Neurobasal medium containing the FGL peptide for 70 hours, fixed with 4% (v/v) formaldehyde, and stained with Hoechst 33258 for 25 minutes as described by Kruman et al. (1997). Images of 1000-1500 neurons were randomly recorded for each group in each experiment using computer assisted fluorescence microscopy as described for the hippocampal neurite outgrowth assay. Nuclei from dead and live neurons were counted using the software package Prima developed at the Protein Laborator, Copenhagen University, and the fraction of live neurons relative to the total number of neurons was estimated.

The subject of assay [2] is cerebellar granule neurons (CGN). Nature of the assay: Neurite outgrowth, cerebellar granule neurons. The assay is classed as cell-based, rat. The conditions noted are these: 24 h. As to the method:
The cultures were subsequently immunostained for tyrosine hydroxylase. Hippocampal neurons and CGN were plated at a density of 10,000 cells/cm^2 on 8-well permanox chamber slides and incubated for 24 hours in the presence of various concentrations of FGLd. Subsequently the neurons were immunostained for GAP-43. Results from at least five independent experiments for each neuronal culture are shown as percentage ±SEM with the untreated controls set at 100%. *p<0.05, **p<0.01, ***p<0.001 when compared to the controls.
Peptide solutions without or with inhibitors of various signal transduction pathways were added to a total volume of 300 μl/cm^2, and the slides were incubated at 37° C. After 24 hours, the neurons were fixed with 4% (v/v) formaldehyde for 20 minutes and thereafter immunostained using primary rabbit antibodies against GAP-43 and Alexa Fluor secondary goat anti-rabbit antibodies. Images of at least 200 neurons for each group in each individual experiment were obtained systematically by using computer assisted fluorescence microscopy as previously described (Rønn et al., 2000 op. cit.). Briefly, a Nikon Diaphot inverted microscope with a Nikon Plan 20× objective (Nikon, Tokyo, Japan) coupled to a video camera (Grundig Electronics, Germany) was used for recordings. The same software package as described above for the dopaminergic neurite outgrowth assay was used to process the recorded images.

Assay [3] deals with hippocampal neurons. Nature of the assay: FM 1-43 destaining (presynaptic vesicle turnover) in hippocampal neurons. The assay is classed as cell-based, rat. As to the method:
The values were compared using an unpaired t-test. *p=0.04 (1 h) and **p=0.0032 (48 h). FGLcontrol is a control peptide consisting the sequence […] (SEQ ID NO: 147).
The effects of FGLd on vesicle turnover was estimated in primary cultures of hippocampal neurons from embryonic rats (E19). The cultures were prepared as above. Following 13-16 days in vitro, FGLd was added to the cultures and incubated for 1, 24 or 48 hours. After 48 hours of incubation, the FGFR-inhibitor (SU 5402) was added simultaneously with FGLd to some of the cultures.
After treatment with FGLd the neurons were labeled with the fluorescent membrane probe FM 1-43 as described by Kiryushko et al (2003) J Biol. Chem. 278:12325-34. The rate of FM 1-43 release (destaining of cells) evoked by depolarisation with 90 mM potassium was then evaluated by a time-lapse image acquisition using the Radiance 2000 scanning system and a Nikon eclipse TE200 confocal microscopy.

Assay [4] relates to rat pups. Nature of the assay: Surface Righting Reflex in rat pups. The assay is classed as in vivo. The conditions noted are these: intranasal 2.6 μg per pup at PND 1, 2, 3. As to the method:
The number of litters of each treatment group was six. […] FGLcontrol as above.
Dose-Response study. The effect of intranasal administration of 0.026, 0.26 and 2.6 μg FGLd per day at post-natal day (PND) 1, 2 and 3 on performance of the Surface Righting Reflex by rat pups was evaluated.
(§1) Sensory Motor Control Development study.

In assay [5] the test system is rat pups. Nature of the assay: Negative Geotaxis Reflex in rat pups. The assay is classed as in vivo. The conditions noted are these: PND 6; intranasal 2.6 μg per pup at PND 1, 2, 3. On the procedure:
The number of litters of each treatment group was six. The results were analysed using one-way ANOVA (FPND6=5.14; PPND6=0.008). […] FGLcontrol as above.
as §1

Assay [6] has as its system adult male Wistar rats. Nature of the assay: Contextual Fear Conditioning test. The assay is classed as in vivo, rat. The conditions noted are these: 5 μg immediately after training. An excerpt: In the Contextual Fear Conditioning test, rats experienced inescapable shocks when exposed to a *new environment, which results in the development of a conditioned fear response, consisting of a characteristic immobility or ‘freezing response’, when subsequently re-exposed to the same environment.
The rats were handled for 120 seconds every day for 3 days preceding the first day of the experiment. On day 1 (training), the rats received a 1-second shock (unconditioned stimuli) each minute for two minutes. Animals were injected immediately after training with 5 μl FGLd (5 μg), the control peptide (5 μg) or the vehicle. Each treatment group consisted of 11-14 rats. In total, 39 animals were evaluated. Animals were tested on days 2, 7 and 30 by placing them in the chamber used for conditioning, but in the absence of a shock, for 8 minutes. Each rat was rated as either “freezing” or “active”, every 2 seconds, using a time-sampling procedure.

Marks after values point to notes of the source that are not given here.

As for “FGLd: MAP-type dendrimer of FGL; dendrimeric tetramer of the FGL peptide (EVYVVAENQQGKSKA)”, the “neuroprotection of hippocampal neurons, maximal level” value in assay [1] (at 0.3 μg/ml, 20 μM Aβ25-35, Aβ25-35-treated controls = 100%) was found to be 110%. The “Neuronal Survival (% of Control)” value in assay [1] (0.01 μg/mL) is recorded as 109%** % of Control; in assay [1] (3 μg/mL), 107%** % of Control; in assay [1] (9 μg/mL), 107%** % of Control. Further, the “Effect on Neurite Length (Percent Increase vs. Control)” value is recorded as 24%** in assay [2] (CGN PND 2-4, 9 μg/mL); 30% in assay [2] (CGN PND 5-8, 3 μg/mL); 93% in assay [2] (CGN PND 5-8, 9 μg/mL); 37% in assay [2] (CGN PND 5-8, 10 μg/mL); 79% in assay [2] (CGN PND 5-8, 25 μg/mL); 121% in assay [2] (CGN PND 5-8, 27 μg/mL). For the same substance, the “Effect on Neurite Length (Percent Increase vs. Control)” value in assay [2] (CGN PND 5-8, 50 μg/mL) was determined as 179%; in assay [2] (CGN PND 5-8, 100 μg/mL), 96%. Moreover, in assay [2] (at 50 μg/ml, untreated control = 100%), the “maximal stimulation of neurite outgrowth, CGN” value amounted to 255%. Besides, the “rate of FM 1-43 unloading” value in assay [3] (5 μg/ml for any time period) is listed as “Neither treatment with 5 μg/ml FGLd for any time period, nor the treatment with 20 μg/ml for 24 hours had any effect”. Moreover, the “rate of FM 1-43 destaining” value was 0.016 s⁻¹ in assay [3] (20 μg/ml for 1 h, control 0.008); “did not result in a significant effect” in assay [3] (20 μg/ml for 24 h); 0.028 s⁻¹ in assay [3] (20 μg/ml for 48 h, control 0.013). Also, the “Surface Righting Reflex test, significance vs control and FGLcontrol groups” value in assay [4] (PND4, P<0.05) is given as “statistically significant effect”. Also, the “Surface Righting Reflex performance” value in assay [4] (PND 5, vehicle 3.4) came out at 1.3 s. For the same substance, the “Negative Geotaxis Reflex test, significance vs control and FGLcontrol groups” value in assay [5] is recorded as “statistically significant effects”. Further, the “percentage of freezing time” value is reported as 73.5% in assay [6] (day 2 after conditioning, control 50.5%) and 60.3% in assay [6] (day 7 after conditioning, control 30.0%).
